Laboratory results: paper PMC10671074, “Tumor Regression upon Intratumoral and Subcutaneous Dosing of the STING Agonist ALG-031048 in Mouse Efficacy Models” (International Journal of Molecular Sciences, 2023)
Read-outs that look alike come from different tables or passages of the source. Marks after values point to notes of the source that are not given here.

Experiments:
[1] = system: primary human immature dendritic cells; test: Activation of primary human immature dendritic cells (CD83/CD86 flow cytometry); format: cell-based; settings: for Surface expression of CD86 and CD83 (in words): iDCs and, to a lesser degree, monocytes, 24 and 72 h; for EC50: iDCs, 72 h after stimulation
From the text: Frozen human PBMCs (100 × 10^6 cells) were obtained from Stem Cell Technologies (Kent, WA, USA). Monocytes were purified from PBMCs using a CD14^+ pan-monocyte-negative isolation kit and an LS column (Miltenyi Biotec, Bergisch Gladbach, Germany). Magnetically labeled non-target cells were depleted by retaining them within a MACS column in the magnetic field of a MACS Separator, while highly purified unlabeled CD1 D16^− cells were collected and used to generate dendritic cells. To obtain immature monocyte-derived dendritic cells (iMDDCs), enriched monocytes were cultured in Mo-DC differentiation medium (Miltenyi Biotec) supplemented with human IL-4 (250 IU/mL, Miltenyi Biotec) and human GM-CSF (800 IU/mL, Miltenyi Biotec) at 37 °C in a T-150 flask in a 5% CO2 humidified incubator for 5 days; fresh media was replenished every 2–3 days.
[…] An aliquot of iMDDCs was also cultured in maturation media for 24–48 h and used as a control containing RPMI 1640, 10% FBS, 2 mM L-glutamine, and human TNF-α (6000 IU/mL, Miltenyi Biotec). The supernatant from the plate was frozen to assess cytokine production, and cells were analyzed via flow cytometry.
Cells were incubated with phosphate-buffered saline (PBS) containing 2% FBS and 2 mM of EDTA (FACS buffer) supplemented with 2 mg/mL of normal human IgG on ice for 15 min to block Fc receptors. The cell suspension was then incubated with a predetermined optimal concentration of the appropriate fluorescent dye-labeled monoclonal antibodies (mAbs) against human cell surface markers on ice for 30 min. The fluorescent dye-labeled mAbs against human cell surface molecules included anti-CD209, anti-CD14, anti-CD11c, anti-CD40, anti-HLA-DR, anti-CD86, and anti-CD83 (BD Biosciences, Franklin Lakes, NJ, USA or BioLegend, San Diego, CA, USA). In addition, a fixable live/dead stain (Thermo Fisher Scientific) at a dilution of 1:1000 was added to exclude dead cells. After several washes with FACS buffer, cells were resuspended in FACS buffer and analyzed on an Attune Nxt flow cytometer (Thermo Fisher Scientific) with FlowJo v10 software (BD Biosciences). An aliquot of the cells to be analyzed served as controls by using “fluorescent minus-one” to establish gates and determine the frequency of positively stained cells. Ultra-comp beads (Thermo Fisher Scientific) were used as single-stained controls to set up compensation on the flow cytometer.

Plasma stability, mouse = format: in vitro ADME; settings: 37 °C, read-out: Plasma t½, Mouse
Experimental: (§1) The plasma stability assay was carried out on 96-well microtiter plates. The test compounds at 5 µM and the reference compound (propantheline) at 1 µM final concentration were incubated separately at 37 °C with mouse or human plasma for 0, 30, 60, and 240 min. At the end of each incubation time point, 300 μL of the quenching solution (50% acetonitrile, 50% methanol, and 0.05% formic acid) containing the internal standard was added to each well. The incubation plates were sealed, vortexed, and centrifuged at 4 °C for 15 min at 4000 rpm. The supernatant was transferred to fresh plates for LC/MS/MS analysis of the test compounds. The peak area ratios of each test compound over the internal standard were plotted against incubation time, and the t½ was calculated from the curve assuming first-order kinetics.

Plasma stability, human = format: in vitro ADME; settings: 37 °C, read-out: Plasma t½, Human
Experimental: as §1

[2] = early clinical trial, patients; cited from earlier work
subcutaneous CT26 tumors = test: CT26 mouse colon carcinoma model; settings: Table 2 study, 3 × q3d; for Median Time to Endpoint: vehicle 19.0
[3] = Liver microsomal stability, human; format: in vitro ADME; settings: pH 7.4, 0.5 mg/mL human liver microsomes, 37 °C, read-out: Liver Microsome t½, Human
Experimental: (§2) The liver microsomal stability assay was carried out in 96-well microtiter plates. The test compounds at 5 µM and the reference compound (verapamil) at 1 µM final concentration were incubated separately at 37 °C with 0.5 mg/mL liver microsomes, with or without 1 mM NADPH in 100 mM potassium phosphate buffer, pH 7.4 with 3.3 mM MgCl2. […] At each of the time points (0, 15, 30, and 60 min), the enzymatic reaction was terminated with the addition of 150 μL of quenching solution (100% acetonitrile, 0.1% formic acid, and the internal standard), and subsequently the mixtures were vortexed vigorously for 20 min and centrifuged at 4000 rpm at 10 °C. The supernatants (80 µL) were transferred to a clean 96-well plate and analyzed via LC/MS/MS. The peak area ratios of each test compound over the internal standard were plotted against incubation time, and the t½ was calculated from the curve assuming first-order kinetics.

[4] = Liver microsomal stability, mouse; format: in vitro ADME; settings: pH 7.4, 0.5 mg/mL mouse liver microsomes, 37 °C, read-out: Liver Microsome t½, Mouse
Experimental: as §2

primary human monocytes = test: Activation of primary human monocytes (CD83/CD86 flow cytometry); format: cell-based; settings: Monocyte, 24 h after stimulation
From the text: Frozen human PBMCs (100 × 10^6 cells) were obtained from Stem Cell Technologies (Kent, WA, USA). Monocytes were purified from PBMCs using a CD14^+ pan-monocyte-negative isolation kit and an LS column (Miltenyi Biotec, Bergisch Gladbach, Germany). Magnetically labeled non-target cells were depleted by retaining them within a MACS column in the magnetic field of a MACS Separator, while highly purified unlabeled CD1 D16^− cells were collected and used to generate dendritic cells.
The cell suspension was then incubated with a predetermined optimal concentration of the appropriate fluorescent dye-labeled monoclonal antibodies (mAbs) against human cell surface markers on ice for 30 min. The fluorescent dye-labeled mAbs against human cell surface molecules included anti-CD209, anti-CD14, anti-CD11c, anti-CD40, anti-HLA-DR, anti-CD86, and anti-CD83 (BD Biosciences, Franklin Lakes, NJ, USA or BioLegend, San Diego, CA, USA). In addition, a fixable live/dead stain (Thermo Fisher Scientific) at a dilution of 1:1000 was added to exclude dead cells. After several washes with FACS buffer, cells were resuspended in FACS buffer and analyzed on an Attune Nxt flow cytometer (Thermo Fisher Scientific) with FlowJo v10 software (BD Biosciences). An aliquot of the cells to be analyzed served as controls by using “fluorescent minus-one” to establish gates and determine the frequency of positively stained cells. Ultra-comp beads (Thermo Fisher Scientific) were used as single-stained controls to set up compensation on the flow cytometer.

MC38-hPD-L1 tumors = test: MC38-hPD-L1 mouse colon carcinoma model; format: in vivo; settings: 5 mg/kg IP, BIW (4×)
From the text: Female C57/BL6 mice (Shanghai Lingchang Biotechnology Co., Ltd., Shanghai, China) were 5 to 8 weeks old with a body weight > 16 g at the time of inoculation. Animals were housed and fed as described above.
After inoculation with tumor cells, the animals were checked daily for morbidity and mortality. During routine monitoring, the animals were checked for any effects of tumor growth or test articles on behavior such as mobility, food and water consumption, body weight gain/loss (body weights were measured twice per week after randomization), eye/hair matting, and any other abnormalities. Tumor volumes were measured and calculated as described above.
Each group consisted of 10 animals. The control group was administered 5 mg/kg isotype control antibody in a volume of 10 μL/g of IP, BIW for 2.5 weeks, 5 doses total. The atezolizumab-treated group was administered 5 mg/kg in a volume of 10 μL/g of IP, BIW for 2.5 weeks, 5 doses total. […] Dosing started when average tumor volumes were 70 mm^3.

Nc1nc2c(ncn2[C@@H]2O[C@@H]3COP(=O)(O)O[C@H]4[C@@H](O)[C@H](n5cnc6c(N)ncnc65)O[C@@H]4COP(=O)(O)O[C@@H]2[C@@H]3O)c(=O)[nH]1 [2′3′ cGAMP, 2′3′ cyclic guanosine monophosphate–adenosine monophosphate]
Surface expression of CD86 and CD83 (in words) [1]: upregulated the surface expression of CD86 and CD83 | EC50 ([1]; read-out: EC50 CD83, Immature Dendritic Cells): 3 µM | EC50 ([1]; read-out: EC50 CD86, Immature Dendritic Cells): 7 µM | half-life at 5 µM (Plasma stability, mouse): 7.2 min | half-life at 5 µM (Plasma stability, human): 12.8 min

Nc1ncnc2c1ncn2[C@@H]1O[C@@H]2CO[P@@](=O)(S)O[C@@H]3[C@H](O)[C@@H](CO[P@@](=O)(S)O[C@H]2[C@H]1O)O[C@H]3n1cnc2c(N)ncnc21 [ADU-S100]
terminal t½ [2]: 10 to 23 min | EC50 ([1]; Homo sapiens, Dendritic cell, read-out: EC50 CD83, Immature Dendritic Cells): 8 µM | EC50 ([1]; Homo sapiens, Dendritic cell, read-out: EC50 CD86, Immature Dendritic Cells): 25 µM | Surface expression of CD86 and CD83 (in words) [1]: upregulated the surface expression of CD86 and CD83 | half-life at 5 µM (Plasma stability, mouse): > 60 min | half-life at 5 µM (Plasma stability, human): > 60 min | Animals with tumor regression by end of study (subcutaneous CT26 tumors; 25 μg IT, Day 40): 1 of 10 | Delayed Response (TV > 10 and <2000 mm^3) (subcutaneous CT26 tumors; 25 μg IT, n = 10): 40% ^a | Treatment Failure (TV > 2000 mm^3) (subcutaneous CT26 tumors; 25 μg IT, n = 10): 50% ^a | Complete Response (TV < 10 mm^3) (subcutaneous CT26 tumors; 25 μg IT, n = 10, BALB/c, end of study Day 40): 10% ^a | Median Time to Endpoint (subcutaneous CT26 tumors; 25 μg IT, n = 10): 36.5 days | Delayed Response (TV > 10 and <2000 mm^3) (subcutaneous CT26 tumors; 100 μg IT, n = 10): 10% ^b | Median Time to Endpoint (subcutaneous CT26 tumors; 100 μg IT, n = 10): 40.0 days | half-life at 5 µM [3]: > 480 min | half-life at 5 µM [4]: > 480 min | EC50 (primary human monocytes; read-out: EC50 CD83, Monocytes): 3.9 µM | EC50 (primary human monocytes; read-out: EC50 CD86, Monocytes): 0.49 µM

Atezolizumab: anti-human PD-L1 antibody atezolizumab biosimilar provided by Crownbio [reference compound]
Tumor Reduction vs. Group 1 (vehicle) (MC38-hPD-L1 tumors; Day 11): 53.7% | TV on Day 11 (Median) (MC38-hPD-L1 tumors; n = 10, vehicle 2268): 1050 mm^3
